Laboratory results from US20130230459A1, “RADIOLABELLED mGluR2 PET LIGANDS” (Janssen Pharmaceuticals, Inc., priority 2010, published 2013).
“And” between values parts separate entries of the source, which are not always exact repeats. Equal entries are not always repeated.

Experiment: Biodistribution studies of 11C tracers
Type: in vivo, Wistar rats
Conditions: for SUV Blood / SUV Cerebellum / SUV Cerebrum total / SUV Cortex / SUV Hippocampus / SUV Striatum: normalized for body weight
Procedure: Biodistribution studies were carried out in healthy male Wistar rats (body weight 200-450 g) at 2 min, 30 min and 60 min post injection (p.i.) (n=3/time point). Rats were injected with about 11 MBq (2 min, 30 min analysis) or 22 MBq (60 min analysis) of the tracer via tail vein under anesthesia (2.5% isoflurane in O2 at 1 L/min flow rate) and sacrificed by decapitation at above specified time points. Blood and major organs were collected in tared tubes and weighed. The radioactivity in blood, organs and other body parts was measured using an automated gamma counter. The distribution of radioactivity in different parts of the body at different time points p.i. of the tracer was calculated and expressed as percentage of injected dose (% ID), and as percentage of injected dose per gram tissue (% ID/g) for the selected organs. % ID is calculated as cpm in organ/total cpm recovered. For calculation of total radioactivity in blood, blood mass was assumed to be 7% of the body mass.

[11CH3]Oc1ccc(F)c(F)c1C1CCN(c2ccn3c(CC4CC4)nnc3c2Cl)CC1 [[^11C]B-10, 8-chloro-3-(cyclopropylmethyl)-7-[4-[2,3-difluoro-6-[^11C]methoxyphenyl]-1-piperidinyl]-1,2,4-triazolo[4,3-a]pyridine]
% ID Blood (2 min p.i.): 6.0 % ID and 6.0 ± 1.3 % ID | % ID Carcass (2 min p.i.): 38.5 ± 2.5 % ID | % ID Cerebellum (2 min p.i.): 0.15 % ID and 0.149 ± 0.054 % ID | % ID Cerebrum total (2 min p.i.): 0.46 % ID and 0.456 ± 0.114 % ID | % ID Cortex (2 min p.i.): 0.053 ± 0.025 % ID | % ID Heart (2 min p.i.): 4.3 ± 0.3 % ID | % ID Hippocampus (2 min p.i.): 0.017 ± 0.005 % ID | % ID Intestines (2 min p.i.): 8.5 ± 0.2 % ID | % ID Kidneys (2 min p.i.): 7.8 ± 1.1 % ID | % ID Liver (2 min p.i.): 32.3 ± 3.2 % ID | % ID Lungs (2 min p.i.): 1.8 ± 0.1 % ID | % ID Rest of cerebrum (2 min p.i.): 0.387 ± 0.084 % ID | % ID Spleen + Pancreas (2 min p.i.): 1.5 ± 0.3 % ID | % ID Stomach (2 min p.i.): 1.8 ± 0.1 % ID | % ID Striatum (2 min p.i.): 0.026 ± 0.012 % ID | % ID Urine (2 min p.i.): 0.1 ± 0.0 % ID | Total brain uptake (2 min p.i.): 0.64 % ID and 0.64 ± 0.1 % ID | SUV Blood (2 min p.i.): 0.90 ± 0.02 | SUV Cerebellum (2 min p.i.): 1.59 ± 0.06 | SUV Cerebrum total (2 min p.i.): 1.12 ± 0.03 | SUV Cortex (2 min p.i.): 1.16 and 1.16 ± 0.04 | SUV Hippocampus (2 min p.i.): 1.11 ± 0.08 | SUV Striatum (2 min p.i.): 1.37 ± 0.05 | % ID Blood (30 min p.i.): 3.9 ± 0.1 % ID | % ID Carcass (30 min p.i.): 62.97 ± 2.4 % ID | % ID Cerebellum (30 min p.i.): 0.152 ± 0.023 % ID | % ID Cerebrum total (30 min p.i.): 0.637 ± 0.078 % ID | % ID Cortex (30 min p.i.): 0.071 ± 0.006 % ID | % ID Heart (30 min p.i.): 1.8 ± 0.1 % ID | % ID Hippocampus (30 min p.i.): 0.021 ± 0.004 % ID | % ID Intestines (30 min p.i.): 9.2 ± 1.4 % ID | % ID Kidneys (30 min p.i.): 3.3 ± 0.2 % ID | % ID Liver (30 min p.i.): 16.2 ± 0.4 % ID | % ID Lungs (30 min p.i.): 0.8 ± 0.0 % ID | % ID Rest of cerebrum (30 min p.i.): 0.511 ± 0.063 % ID | % ID Spleen + Pancreas (30 min p.i.): 1.1 ± 0.1 % ID | % ID Stomach (30 min p.i.): 1.8 ± 0.4 % ID | % ID Striatum (30 min p.i.): 0.034 ± 0.005 % ID | % ID Urine (30 min p.i.): 0.3 ± 0.0 % ID | Total brain uptake (30 min p.i.): 0.80 ± 0.1 % ID | SUV Blood (30 min p.i.): 0.50 ± 0.00 | SUV Cerebellum (30 min p.i.): 1.68 and 1.68 ± 0.05 | SUV Cerebrum total (30 min p.i.): 1.34 ± 0.03 | SUV Cortex (30 min p.i.): 1.39 and 1.39 ± 0.05 | SUV Hippocampus (30 min p.i.): 0.93 ± 0.02 | SUV Striatum (30 min p.i.): 1.39 ± 0.03 | % ID Blood (60 min p.i.): 3.4 % ID and 3.4 ± 0.2 % ID | % ID Carcass (60 min p.i.): 63.7 ± 1.8 % ID | % ID Cerebellum (60 min p.i.): 0.172 ± 0.030 % ID | % ID Cerebrum total (60 min p.i.): 0.598 ± 0.036 % ID | % ID Cortex (60 min p.i.): 0.070 ± 0.002 % ID | % ID Heart (60 min p.i.): 1.2 ± 0.1 % ID | % ID Hippocampus (60 min p.i.): 0.026 ± 0.002 % ID | % ID Intestines (60 min p.i.): 11.8 ± 0.0 % ID | % ID Kidneys (60 min p.i.): 2.6 ± 0.2 % ID | % ID Liver (60 min p.i.): 13.7 ± 1.3 % ID | % ID Lungs (60 min p.i.): 0.7 ± 0.0 % ID | % ID Rest of cerebrum (60 min p.i.): 0.466 ± 0.033 % ID | % ID Spleen + Pancreas (60 min p.i.): 1.4 ± 0.5 % ID | % ID Stomach (60 min p.i.): 2.0 ± 0.4 % ID | % ID Striatum (60 min p.i.): 0.035 ± 0.005 % ID | % ID Urine (60 min p.i.): 0.4 ± 0.1 % ID | % ID present in liver and intestines (60 min p.i.): 25.5 % ID | % ID present in the urinary system (60 min p.i.): 3.0 % ID | Total brain uptake (60 min p.i.): 0.78 ± 0.0 % ID | SUV Blood (60 min p.i.): 0.50 ± 0.00 | SUV Cerebellum (60 min p.i.): 1.52 ± 0.02 | SUV Cerebrum total (60 min p.i.): 1.19 ± 0.01 | SUV Cortex (60 min p.i.): 1.08 ± 0.01 | SUV Hippocampus (60 min p.i.): 0.94 ± 0.01 | SUV Striatum (60 min p.i.): 1.55 ± 0.01

[11CH3]Oc1c(F)ccc(F)c1C1CCN(c2ccn3c(CC4CC4)nnc3c2Cl)CC1 [[^11C]B-2, 8-chloro-3-(cyclopropylmethyl)-7-[4-(3,6-difluoro-2-[^11C]methoxyphenyl)-1-piperidinyl]-1,2,4-triazolo[4,3-a]pyridine]
% ID Blood (2 min p.i.): 4.3 % ID and 4.3 ± 0.6 % ID | % ID Carcass (2 min p.i.): 38.4 ± 2.6 % ID | % ID Cerebellum (2 min p.i.): 0.17 % ID and 0.174 ± 0.039 % ID | % ID Cerebrum total (2 min p.i.): 0.69 % ID and 0.691 ± 0.146 % ID | % ID Cortex (2 min p.i.): 0.097 ± 0.019 % ID | % ID Heart (2 min p.i.): 4.6 ± 0.6 % ID | % ID Hippocampus (2 min p.i.): 0.028 ± 0.008 % ID | % ID Intestines (2 min p.i.): 8.5 ± 0.3 % ID | % ID Kidneys (2 min p.i.): 6.6 ± 0.7 % ID | % ID Liver (2 min p.i.): 33.5 ± 1.4 % ID | % ID Lungs (2 min p.i.): 1.5 ± 0.1 % ID | % ID Rest of cerebrum (2 min p.i.): 0.535 ± 0.121 % ID | % ID Spleen + Pancreas (2 min p.i.): 1.4 ± 0.1 % ID | % ID Stomach (2 min p.i.): 1.4 ± 0.2 % ID | % ID Striatum (2 min p.i.): 0.032 ± 0.008 % ID | % ID Urine (2 min p.i.): 0.1 ± 0.0 % ID | Total brain uptake (2 min p.i.): 0.88 % ID and 0.88 ± 0.2 % ID | SUV Blood (2 min p.i.): 0.60 ± 0.01 | SUV Cerebellum (2 min p.i.): 1.59 ± 0.03 | SUV Cerebrum total (2 min p.i.): 1.32 ± 0.03 | SUV Cortex (2 min p.i.): 1.46 ± 0.03 | SUV Hippocampus (2 min p.i.): 0.90 ± 0.01 | SUV Striatum (2 min p.i.): 1.22 and 1.22 ± 0.02 | % ID Blood (30 min p.i.): 2.7 ± 0.9 % ID | % ID Carcass (30 min p.i.): 50.9 ± 3.4 % ID | % ID Cerebellum (30 min p.i.): 0.291 ± 0.088 % ID | % ID Cerebrum total (30 min p.i.): 0.914 ± 0.140 % ID | % ID Cortex (30 min p.i.): 0.118 ± 0.041 % ID | % ID Heart (30 min p.i.): 2.5 ± 0.8 % ID | % ID Hippocampus (30 min p.i.): 0.045 ± 0.005 % ID | % ID Intestines (30 min p.i.): 10.4 ± 1.2 % ID | % ID Kidneys (30 min p.i.): 4.3 ± 1.0 % ID | % ID Liver (30 min p.i.): 22.7 ± 3.0 % ID | % ID Lungs (30 min p.i.): 1.1 ± 0.5 % ID | % ID Rest of cerebrum (30 min p.i.): 0.704 ± 0.112 % ID | % ID Spleen + Pancreas (30 min p.i.): 1.4 ± 0.2 % ID | % ID Stomach (30 min p.i.): 3.7 ± 0.3 % ID | % ID Striatum (30 min p.i.): 0.047 ± 0.008 % ID | % ID Urine (30 min p.i.): 0.3 ± 0.1 % ID | Total brain uptake (30 min p.i.): 1.23 ± 0.2 % ID | SUV Blood (30 min p.i.): 0.40 ± 0.01 | SUV Cerebellum (30 min p.i.): 2.62 and 2.62 ± 0.04 | SUV Cerebrum total (30 min p.i.): 1.96 ± 0.03 | SUV Cortex (30 min p.i.): 1.77 ± 0.04 | SUV Hippocampus (30 min p.i.): 1.49 ± 0.03 | SUV Striatum (30 min p.i.): 2.14 and 2.14 ± 0.04 | % ID Blood (60 min p.i.): 2.0 % ID and 2.0 ± 0.0 % ID | % ID Carcass (60 min p.i.): 55.8 ± 9.4 % ID | % ID Cerebellum (60 min p.i.): 0.142 ± 0.029 % ID | % ID Cerebrum total (60 min p.i.): 0.558 ± 0.042 % ID | % ID Cortex (60 min p.i.): 0.080 ± 0.022 % ID | % ID Heart (60 min p.i.): 1.2 ± 0.2 % ID | % ID Hippocampus (60 min p.i.): 0.024 ± 0.006 % ID | % ID Intestines (60 min p.i.): 15.6 ± 2.7 % ID | % ID Kidneys (60 min p.i.): 2.1 ± 0.2 % ID | % ID Liver (60 min p.i.): 20.1 ± 7.0 % ID | % ID Lungs (60 min p.i.): 0.6 ± 0.1 % ID | % ID Rest of cerebrum (60 min p.i.): 0.421 ± 0.010 % ID | % ID Spleen + Pancreas (60 min p.i.): 0.7 ± 0.0 % ID | % ID Stomach (60 min p.i.): 1.7 ± 0.4 % ID | % ID Striatum (60 min p.i.): 0.033 ± 0.008 % ID | % ID Urine (60 min p.i.): 0.3 ± 0.1 % ID | % ID present in liver and intestines (60 min p.i.): 35.7 % ID | % ID present in the urinary system (60 min p.i.): 2.4 % ID | Total brain uptake (60 min p.i.): 0.71 ± 0.0 % ID | SUV Blood (60 min p.i.): 0.30 ± 0.01 | SUV Cerebellum (60 min p.i.): 1.75 ± 0.04 | SUV Cerebrum total (60 min p.i.): 1.11 ± 0.06 | SUV Cortex (60 min p.i.): 1.28 ± 0.02 | SUV Hippocampus (60 min p.i.): 0.73 ± 0.06 | SUV Striatum (60 min p.i.): 1.72 ± 0.02 | % ID present in the carcass (at all time points examined): ~50 % ID
